pIC50: −log10 of the molar value. ≈ marks a conversion by molar mass, not a printed value. Where “and” joins values, the source holds several entries; their conditions need not be identical. Identical values can stand only once. Like-named read-outs stand apart in the source and are kept apart here.
Assays:
MDA-MB-453 cells [1] = test: MTT assay, 96 hours; format: cell-based, human; details: for IC50: Homo sapiens, MTT, 96 h
Procedure: (§1) For the Coulter counter assay, cells were seeded at 2×10^4 cells per well in 24 well plates (0.875 cm diameter) as described previously. […] Control and treated cells were compared using the student's t-test (p<0.05). For cell cycle analysis the cells were plated (3×10^5) onto 6 cm dishes and allowed to attach for 24 hours. […] After 24 hours the cells were analyzed by DNA flow cytometry, as described previously.

Na^+-K^+-ATPase = test system: T1, Na^+-K^+-ATPase; test: Combination of agents on Na^+-K^+-ATPase activity, combination index; format: biochemical
T1 construct: Combination index; actein (μM); Combination index; actein; ATPase activity; other: actein 0.8 μM alone; other: digitox
Procedure: Enzymatic assay of adenosine 5′-triphosphatase. The enzymatic assay of ATPase (adenosine 5′-triphosphatase, EC 3.6.1.3) followed the Sigma Prod. […] [P] was determined by the Taussky-Shorr method.

HCC1569 cells = test: MTT assay, 96 hours; format: cell-based; details: Homo sapiens
BT474 cells = test: Cell proliferation, cell count (Coulter Counter); format: cell-based; details: Homo sapiens; for pIC50: BT-474, BT474, unit inferred
MDA-MB-453 cells [2] = test: Cell proliferation, cell count (Coulter Counter); details: Homo sapiens, MDA-MB-453, 96 h
Procedure: For the cell count assay, breast cancer cells were seeded, in triplicate, at 2×10^4 cells per well, in 24- or 96-well plates.
as §1

MCF7 cells [3] = test: Cell-cycle analysis by DNA flow cytometry; format: cell-based, human
Procedure: Synchrony: To synchronize the cells, 3×10^5 cells were plated onto 10 cm dishes and grown for 2 days in DMEM supplemented with 10% fetal bovine serum.
After incubation for 1-3 days, the supernatant was collected, and the cells were trypsinized, collected, and washed with phosphate buffered saline (PBS) containing 5% FBS. Cell pellets were re-suspended in 1 ml of PBS plus 5% FBS. Thereafter, 5 ml of 70% ethanol were added drop-wise, while vortexing the tube, and the mixture was stored at 4° C. Cells were centrifuged, washed with PBS plus 5% FBS, and re-suspended in 400 μl of propidium iodide (0.1 mg/ml) (Sigma Chemical Co.). 400 μl (2 mg/ml) of RNase (Sigma Chemical Co.) were added, and the cells were incubated in the dark at room temperature for 30 min.

[4] = test system: rat liver gene expression; test: AffyLimma microarray analysis of rat liver, actein; format: in vivo, Sprague-Dawley rats; details: for number of genes significantly altered (B>0): actein; for Fold-change relative to control, BZRP, Microarray / Fold-change relative to control, CCND1, Microarray / Fold-change relative to control, CYP7A1, Microarray / Fold-change relative to control, HMGCR, Microarray / Fold-change relative to control, HMGCS1, Microarray / Fold-change relative to control, HSD17B7, Microarray / Fold-change relative to control, ID3, Microarray / Fold-change relative to control, NQO1, Microarray / Fold-change relative to control, S100A9, Microarray: rat liver, 35.7 mg/kg
MCF7 cells [5] = test: Western-blot analysis; format: cell-based, human
Procedure: Cells were treated for increasing times with approximately the IC50 concentration, or twice the IC50 concentration, of actein. The cells were harvested, washed with PBS, and sonicated in extraction buffer according to the procedure of Han et al. (Han et al., Stable overexpression of cyclin D1 in a human mammary epithelial cell line prolongs the S-phase, and inhibits growth. Oncogene, 10:953-61, 1995). The lysates were subjected to electrophoresis on a 10% or 12.5% SDS-polyacrylamide gel, and then transferred to a polyvinylidene difluoride (PVDF) membrane. The membrane was blocked with milk protein, and incubated with a solution containing the primary antibody against the following: cyclin D1 (Upstate Biotechnology, Lake Placid, N.Y.), p21^cip1 (Oncogene Research Products, Darmstadt, Germany), ppRb (ser 780, Medical and Biological Laboratories, Nagoya, Japan), cdk4 (Upstate Biotechnology, Lake Placid, N.Y.), EGFR (clone-74, Transduction Laboratories, Lexington, Ky.), p-EGFR (phospho (Y1173)-EGFR) (Cell Signaling, Beverly, Mass.), actin (Sigma, St. Louis, Mo.), Her-2/neu (Cell Signaling, Beverly, Mass.), or phospho-(Y1248)-Her-2/neu (Cell Signaling, Beverly, Mass.)), IκB (Sant Cruz Biotechnolgy, Santa Cruz, Calif.), IκκB (Sigma, St. Louis, Mo.) and PPARγ (Santa Cruz biotechnology, Santa Cruz, Calif.) (Masuda et al., Epigallocatechin-3-gallate inhibits activation of HER-2/neu and downstream signaling pathways in human head and neck and breast carcinoma cells. Clin. Cancer Res., 9: 3486-91, 2003). The membrane was washed, and incubated with horseradish peroxidase conjugated secondary antibody.
Protein bands were visualized with the ECL-enhanced chemiluminescence system, according to the manufacturer's directions (Amersham Pharmacia Biotech) (Sgambato et al., Overexpression of p27 (Kip1) inhibits the growth of both normal and transformed human mammary epithelial cells. Cancer Research, 58:3448-54, 1998). The staining intensities of the visualized blots were quantified using NIH image software. For each protein, the relative band intensities were determined by comparing treated samples with untreated controls. These values were then normalized, using β-actin as an internal control.

rat liver mRNAs = format: in vivo, Sprague-Dawley rats; details: 35.7 mg/kg
From the text: Total RNA was isolated using Trizol (Invitrogen, CA), and purified with the RNeasy Kit (Qiagen, CA). mRNA sequences were obtained from the public GeneBank database (www.ncbi.nlm.nih.gov), and primers were designed using Primer3 software from The Massachusetts Institute of Technology (frodo.wi.mit.edu/cgi-bin/primer3/primer3_www.cgi).

`C[C@H]1O[C@@H](O[C@H]2[C@@H](O)C[C@H](O[C@H]3[C@@H](O)C[C@H](O[C@H]4CC[C@@]5(C)[C@H](CC[C@@H]6[C@@H]5CC[C@]5(C)[C@@H](C7=CC(=O)OC7)CC[C@]65O)C4)O[C@@H]3C)O[C@@H]2C)C[C@H](O)[C@@H]1O` [digitoxin] was tested, and the IC50 (MDA-MB-453 cells [1]; MDA-MB-453, 96 h) was ~0.025 µg/mL and ~33 nM, the ATPase activity (Na^+-K^+-ATPase; digitoxin 0.2 μM alone) was 87.8% and the ATPase activity (Na^+-K^+-ATPase; digitoxin 0.8 μM alone) was 53.6%. The pIC50 (HCC1569 cells) was 6.92, the IC50 (BT474 cells; BT-474, BT474, Coulter counter) was 0.03 µg/mL and 40 nM and the pIC50 (BT474 cells) was 7.41. The IC50 (MDA-MB-453 cells [2]) was 0.04 µg/mL and 50 nM.

With `CC(=O)O[C@@H]1C[C@@]23C[C@@]24CC[C@H](O[C@@H]2OC[C@@H](O)[C@H](O)[C@H]2O)C(C)(C)[C@@H]4CC[C@H]3[C@]2(C)C[C@@H]3O[C@]4(C[C@@H](C)[C@@H]3[C@@]12C)O[C@H](O)[C@@]1(C)O[C@@H]41` [actein] the “cells in G1” value (MCF7 cells [3]; 10 μg/ml, 24 h) was 75%, the “cells in G1” value (MCF7 cells [3]; 10 μg/ml, 48 h) was 77% and the “cells in G1” value (MCF7 cells [3]; 20 μg/ml, 24 h) was 77%. The “apoptosis (sub G1 peak)” value (MCF7 cells [3]; 20 μg/ml, 48 h) was “approximately 1.4%”, the “cells in G1” value (MCF7 cells [3]; 20 μg/ml, 48 h) was 87% and the “apoptosis (sub G1 peak)” value (MCF7 cells [3]; 20 μg/ml, 72 h) was 3.6%. For the same compound, the “cells in G1” value (MCF7 cells [3]; 30 μg/ml, 48 h) was 82%, the “cells in G2/M” value (MCF7 cells [3]; 30 μg/ml, 48 h) was 12% and the “cells in G1” value (MCF7 cells [3]; 40 μg/ml, 24 h) was 74%. For the same compound, the “cells in G1” value (MCF7 cells [3]; 40 μg/ml, 48 h) was 79%, the “cells in G1” value (MCF7 cells [3]; 60 μg/ml, 48 h) was 77% and the “cells in G2/M” value (MCF7 cells [3]; 60 μg/ml, 48 h) was 18%. For the same compound, the “amplification: IC50 ATPase inhibition / IC50 growth inhibition” value (MDA-MB-453 cells [1]) was “about 2 fold”, the IC50 (MDA-MB-453 cells [1]; read-out: IC50) was ~5 µg/mL and ~7.4 µM and the ATPase activity (Na^+-K^+-ATPase; actein 0.8 μM alone) was 95.1%. The pIC50 (HCC1569 cells; unit inferred, read-out: IC50) was 4.60, the “number of genes significantly altered (B>0)” value ([4]; 6 hours) was 0 and the “number of genes significantly altered (B>0)” value ([4]; 24 hours) was 109. The “Fold-change relative to control, BZRP, Microarray” value ([4]; 6 h) was −0.12, the “Fold-change relative to control, CCND1, Microarray” value ([4]; 6 h) was 0.57 and the “Fold-change relative to control, CYP7A1, Microarray” value ([4]; 6 h) was 0.045. The “Fold-change relative to control, HMGCR, Microarray” value ([4]; 6 h) was −0.61, the “Fold-change relative to control, HMGCS1, Microarray” value ([4]; 6 h) was −0.66 and the “Fold-change relative to control, HSD17B7, Microarray” value ([4]; 6 h) was −0.99. The “Fold-change relative to control, ID3, Microarray” value ([4]; 6 h) was 0.19, the “Fold-change relative to control, NQO1, Microarray” value ([4]; 6 h) was −0.64 and the “Fold-change relative to control, S100A9, Microarray” value ([4]; 6 h) was −0.64. The “Fold-change relative to control, BZRP, Microarray” value ([4]; 24 h) was 1.51, the “Fold-change relative to control, CCND1, Microarray” value ([4]; 24 h) was −2.30 and the “Fold-change relative to control, CYP7A1, Microarray” value ([4]; 24 h) was 2.04. For the same compound, the “Fold-change relative to control, HMGCR, Microarray” value ([4]; 24 h) was 1.12, the “Fold-change relative to control, HMGCS1, Microarray” value ([4]; 24 h) was 1.11 and the “Fold-change relative to control, HSD17B7, Microarray” value ([4]; 24 h) was 2.11. For the same compound, the “Fold-change relative to control, ID3, Microarray” value ([4]; 24 h) was −0.58, the “Fold-change relative to control, NQO1, Microarray” value ([4]; 24 h) was 1.45 and the “Fold-change relative to control, S100A9, Microarray” value ([4]; 24 h) was 3.01. For the same compound, the pIC50 (BT474 cells; read-out: IC50) was 4.63, the IC50 (MDA-MB-453 cells [2]) was roughly 8 µg/mL (≈ 11.8 µM) and the “cellular level of cyclin D1” value (MCF7 cells [5]; 40 μg/ml, 24 h) was “almost a complete loss”. The “level of EGFR” value (MCF7 cells [5]; 20 or 40 μg/ml) was “not significantly affected”, the “p21cip1 band intensity relative to β-actin” value (MCF7 cells [5]; 3 h, 20 μg/ml) was 1.47 fold and the “ppRb band intensity relative to β-actin” value (MCF7 cells [5]; 3 h, 20 μg/ml) was 1.51 fold. For the same compound, the “p21cip1 band intensity relative to β-actin” value (MCF7 cells [5]; 3 h, 40 μg/ml) was 1.17 fold and 1 fold, the “ppRb band intensity relative to β-actin” value (MCF7 cells [5]; 3 h, 40 μg/ml) was 1.59 fold and the “p21cip1 band intensity relative to β-actin” value (MCF7 cells [5]; 10 h, 20 μg/ml) was 1.75 fold. For the same compound, the “ppRb band intensity relative to β-actin” value (MCF7 cells [5]; 10 h, 20 μg/ml) was 0.61 fold, the “p21cip1 band intensity relative to β-actin” value (MCF7 cells [5]; 10 h, 40 μg/ml) was 1.37 fold and the “ppRb band intensity relative to β-actin” value (MCF7 cells [5]; 10 h, 40 μg/ml) was 0.64 fold. The “p21cip1 band intensity relative to β-actin” value (MCF7 cells [5]; 24 h, 20 μg/ml) was 0.94 fold, the “ppRb band intensity relative to β-actin” value (MCF7 cells [5]; 24 h, 20 μg/ml) was 0.80 fold and 0.8 fold and the “p21cip1 band intensity relative to β-actin” value (MCF7 cells [5]; 24 h, 40 μg/ml) was 0.78 fold. For the same compound, the “ppRb band intensity relative to β-actin” value (MCF7 cells [5]; 24 h, 40 μg/ml) was 0.43 fold, the “Fold-change relative to control, BZRP, RT-PCR” value (rat liver mRNAs; 6 h) was 0.07 and the “Fold-change relative to control, CCND1, RT-PCR” value (rat liver mRNAs; 6 h) was 0.52. For the same compound, the “Fold-change relative to control, HMGCR, RT-PCR” value (rat liver mRNAs; 6 h) was −0.45, the “Fold-change relative to control, HMGCS1, RT-PCR” value (rat liver mRNAs; 6 h) was −0.82 and the “Fold-change relative to control, HSD17B7, RT-PCR” value (rat liver mRNAs; 6 h) was −0.66. The “Fold-change relative to control, ID3, RT-PCR” value (rat liver mRNAs; 6 h) was 0.30, the “Fold-change relative to control, NQO1, RT-PCR” value (rat liver mRNAs; 6 h) was −0.50 and the “Fold-change relative to control, S100A9, RT-PCR” value (rat liver mRNAs; 6 h) was −0.36. The “Fold-change relative to control, BZRP, RT-PCR” value (rat liver mRNAs; 24 h) was 1.13, the “Fold-change relative to control, CCND1, RT-PCR” value (rat liver mRNAs; 24 h) was −2.32 and the “Fold-change relative to control, HMGCR, RT-PCR” value (rat liver mRNAs; 24 h) was 0.45. For the same compound, the “Fold-change relative to control, HMGCS1, RT-PCR” value (rat liver mRNAs; 24 h) was 1.44, the “Fold-change relative to control, HSD17B7, RT-PCR” value (rat liver mRNAs; 24 h) was 1.21 and the “Fold-change relative to control, ID3, RT-PCR” value (rat liver mRNAs; 24 h) was −1.52. The “Fold-change relative to control, NQO1, RT-PCR” value (rat liver mRNAs; 24 h) was 1.73 and the “Fold-change relative to control, S100A9, RT-PCR” value (rat liver mRNAs; 24 h) was 2.92.

— US20120208776A1 (priority 2002, published 2012)
